Assay results as given in patent US9096591B2, “Tetracyclic compounds” (Medivation Technologies, Inc., priority 2007, dated 2015).

Assays:
[1] = target: T1, human recombinant histamine H2 receptor (Homo sapiens, UniProt P25021); experiment: Histamine H2 radioligand binding ([125I]Aminopotentidine); conditions: percent inhibition of specific binding; screened at 1 μM; read-out: Inhibition of ligand binding, Hist. H2
T1 construct: expressed in transfected cells; host or cells: CHO-K1 cells
How it was run: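 This radioligand binding assay measured displacement of [125I]Aminopotentidine from recombinant human histamine H2 receptors. Compounds were dissolved in 1% DMSO vehicle. Specific binding was calculated by subtracting non-specific binding, defined using 3 μM Tiotidine, and activity was reported as percentage inhibition of that specific binding.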

[2] = target: T2, Serotonin (5-Hydroxytryptamine) 5-HT7 (Homo sapiens, UniProt P34969); experiment: Serotonin 5-HT7 radioligand binding ([3H]LSD); set-up: Inhibition of ligand binding, Ser. 5-HT7: concentration or dose not given beside the values; conditions: percent inhibition of specific binding
T2 construct: expressed in transfected cells; host or cells: CHO cells
Method: Lysergic acid diethylamide (LSD) for 2 hours at 25° C. […] Receptor proteins were filtered and washed, the filters were then counted to determine [^3H]LSD specifically bound. […] Biochemical assay results are presented as the percent inhibition of specific binding in Table 6.

[3] = target: T3, human recombinant serotonin (5-Hydroxytryptamine) 5-HT2A receptor (Homo sapiens, UniProt P28223); experiment: Serotonin 5-HT2A radioligand binding ([3H]Ketanserin); conditions: percent inhibition of specific binding
T3 construct: expressed in transfected cells; host or cells: CHO-K1 cells
Method: Compounds of the invention were incubated with 0.5 nM [^3H]Ketanserin for 60 minutes at 25° C. Non-specific binding was estimated in the presence of 1 μM Mianserin. Receptor proteins were filtered and washed, the filters were then counted to determine [^3H]Ketanserin specifically bound. […] Biochemical assay results are presented as the percent inhibition of specific binding in Table 6.

[4] = target: T4, human recombinant adrenergic α1D receptor (Homo sapiens, UniProt P25100); experiment: Adrenergic α1D radioligand binding ([3H]Prozosin); set-up: Inhibition of ligand binding, Adren. alpha1D: concentration or dose not given beside the values; conditions: percent inhibition of specific binding
T4 construct: expressed in transfected cells; host or cells: HEK-293 cells
T4 sequence (P25100 1-572): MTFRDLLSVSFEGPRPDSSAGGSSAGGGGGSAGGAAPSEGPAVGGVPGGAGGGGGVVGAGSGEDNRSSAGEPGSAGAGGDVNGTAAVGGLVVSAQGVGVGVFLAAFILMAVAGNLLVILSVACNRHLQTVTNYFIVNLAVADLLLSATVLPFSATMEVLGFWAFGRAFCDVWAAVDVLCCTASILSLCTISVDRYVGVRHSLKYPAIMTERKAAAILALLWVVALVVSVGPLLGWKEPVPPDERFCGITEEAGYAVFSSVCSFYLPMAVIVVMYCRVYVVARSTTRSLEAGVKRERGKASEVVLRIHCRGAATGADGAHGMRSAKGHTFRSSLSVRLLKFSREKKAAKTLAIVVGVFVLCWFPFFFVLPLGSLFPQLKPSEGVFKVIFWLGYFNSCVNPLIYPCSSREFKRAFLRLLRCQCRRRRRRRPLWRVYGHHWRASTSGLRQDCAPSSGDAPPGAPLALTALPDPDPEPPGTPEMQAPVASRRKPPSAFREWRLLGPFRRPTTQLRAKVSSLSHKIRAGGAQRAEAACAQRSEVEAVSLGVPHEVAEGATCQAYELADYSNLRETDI
Method: Compounds of invention were incubated with 0.6 nM [^3H]Prozosin for 60 minutes at 25° C. Non-specific binding was estimated in the presence of 10 μM phentolamine. Receptor proteins were filtered and washed, the filters were then counted to determine [^3H]Prozosin specifically bound. […] Biochemical assay results are presented as the percent inhibition of specific binding in Table 6.

[5] = target: T5, human recombinant adrenergic α2A receptor (Homo sapiens, UniProt P08913); experiment: Adrenergic α2A radioligand binding ([3H]MK-912); set-up: Inhibition of ligand binding, Adren. alpha2A: concentration or dose not given beside the values; conditions: percent inhibition of specific binding
T5 construct: expressed in transfected cells; host or cells: insect Sf9 cells
T5 sequence (P08913 1-465): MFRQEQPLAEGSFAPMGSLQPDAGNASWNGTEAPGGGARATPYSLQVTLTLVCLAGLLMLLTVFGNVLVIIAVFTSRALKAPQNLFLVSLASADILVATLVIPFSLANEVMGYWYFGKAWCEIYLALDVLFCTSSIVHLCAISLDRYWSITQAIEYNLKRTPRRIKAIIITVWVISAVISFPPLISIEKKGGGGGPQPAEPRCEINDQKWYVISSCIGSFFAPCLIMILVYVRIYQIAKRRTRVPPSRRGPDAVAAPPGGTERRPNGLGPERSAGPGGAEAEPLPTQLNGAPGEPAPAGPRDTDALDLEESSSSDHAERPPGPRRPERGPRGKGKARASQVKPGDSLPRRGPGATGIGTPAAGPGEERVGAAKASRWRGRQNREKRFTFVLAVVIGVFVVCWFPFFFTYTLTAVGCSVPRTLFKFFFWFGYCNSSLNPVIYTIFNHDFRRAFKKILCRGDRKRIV
How it was run: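 Membranes from Sf9 cells expressing the receptor were incubated with 1 nM [3H]MK-912 for 60 minutes at 25° C in 50 mM Tris-HCl pH 7.4, 12.5 mM MgCl2, 2 mM EDTA. 10 μM WB-4101 defined non-specific binding. Values are percent inhibition of specific bound radioactivity after filtration.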

[6] = target: T6, human recombinant dopamine D2L receptor (Homo sapiens, UniProt P14416); experiment: Dopamine D2L radioligand binding ([3H]Spiperone); conditions: percent inhibition of specific binding
T6 construct: expressed in transfected cells; host or cells: CHO cells
Method: Non-specific binding was estimated in the presence of 10 μM Haloperidol. Receptor proteins were filtered and washed, the filters were then counted to determine [^3H]Spiperone specifically bound. […] Biochemical assay results are presented as the percent inhibition of specific binding in Table 6.

T6 sequence (P14416 whole entry): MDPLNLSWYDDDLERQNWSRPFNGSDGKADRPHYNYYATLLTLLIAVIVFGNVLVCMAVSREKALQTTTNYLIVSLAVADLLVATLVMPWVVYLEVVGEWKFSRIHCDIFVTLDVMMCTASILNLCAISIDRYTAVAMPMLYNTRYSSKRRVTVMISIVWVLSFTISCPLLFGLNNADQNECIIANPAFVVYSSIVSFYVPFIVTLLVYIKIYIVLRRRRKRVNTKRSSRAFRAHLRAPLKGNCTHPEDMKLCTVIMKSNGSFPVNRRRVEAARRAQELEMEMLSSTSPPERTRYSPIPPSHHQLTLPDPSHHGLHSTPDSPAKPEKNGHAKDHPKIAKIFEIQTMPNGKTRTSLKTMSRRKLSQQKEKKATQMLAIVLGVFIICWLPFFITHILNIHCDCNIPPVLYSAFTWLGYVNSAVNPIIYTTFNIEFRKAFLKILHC
T2 sequence (P34969 whole entry): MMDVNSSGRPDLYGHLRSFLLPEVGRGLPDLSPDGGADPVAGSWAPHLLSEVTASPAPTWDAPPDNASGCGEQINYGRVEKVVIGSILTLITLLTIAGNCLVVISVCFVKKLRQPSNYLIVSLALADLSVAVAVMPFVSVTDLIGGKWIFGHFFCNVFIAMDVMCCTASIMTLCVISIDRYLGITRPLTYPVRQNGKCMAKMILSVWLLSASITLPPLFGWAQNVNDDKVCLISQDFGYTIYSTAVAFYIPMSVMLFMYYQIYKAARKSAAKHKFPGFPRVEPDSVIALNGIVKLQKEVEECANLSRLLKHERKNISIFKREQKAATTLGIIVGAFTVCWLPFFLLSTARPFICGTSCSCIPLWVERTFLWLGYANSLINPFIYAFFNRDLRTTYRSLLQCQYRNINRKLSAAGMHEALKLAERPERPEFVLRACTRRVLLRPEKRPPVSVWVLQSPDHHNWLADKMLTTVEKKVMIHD
T1 sequence (P25021 whole entry): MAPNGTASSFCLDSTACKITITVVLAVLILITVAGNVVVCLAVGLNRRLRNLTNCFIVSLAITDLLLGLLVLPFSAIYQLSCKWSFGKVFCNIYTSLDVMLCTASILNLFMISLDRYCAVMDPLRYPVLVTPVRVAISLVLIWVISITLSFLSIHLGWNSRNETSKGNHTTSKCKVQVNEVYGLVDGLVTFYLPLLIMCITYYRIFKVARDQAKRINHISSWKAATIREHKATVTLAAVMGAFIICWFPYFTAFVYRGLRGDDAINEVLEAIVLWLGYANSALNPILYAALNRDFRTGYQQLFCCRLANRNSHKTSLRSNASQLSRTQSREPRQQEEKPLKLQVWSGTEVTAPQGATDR
T3 sequence (P28223 whole entry): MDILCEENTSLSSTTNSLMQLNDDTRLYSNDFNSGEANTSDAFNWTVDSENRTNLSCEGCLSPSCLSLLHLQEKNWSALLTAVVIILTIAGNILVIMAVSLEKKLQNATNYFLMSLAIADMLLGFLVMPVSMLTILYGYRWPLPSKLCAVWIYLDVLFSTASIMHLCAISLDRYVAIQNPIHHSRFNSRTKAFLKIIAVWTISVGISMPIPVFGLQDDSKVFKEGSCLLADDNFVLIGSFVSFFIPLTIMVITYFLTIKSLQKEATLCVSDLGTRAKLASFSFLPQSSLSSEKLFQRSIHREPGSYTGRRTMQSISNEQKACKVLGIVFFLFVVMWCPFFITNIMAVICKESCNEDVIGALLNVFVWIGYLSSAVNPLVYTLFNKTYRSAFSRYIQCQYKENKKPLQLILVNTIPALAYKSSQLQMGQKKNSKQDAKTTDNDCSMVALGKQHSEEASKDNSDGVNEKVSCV

| Structure (SMILES) | inhibition at 1 µM [1] | Inhibition of ligand binding, Ser. 5-HT7 [2] | Inhibition of ligand binding, Ser. 5-HT2A [3] | Inhibition of ligand binding, Adren. alpha1D [4] | Inhibition of ligand binding, Adren. alpha2A [5] | Inhibition of ligand binding, Dop. D2L [6] |
| --- | --- | --- | --- | --- | --- | --- |
| Cc1ccc(CCn2c3c(c4cc(Cl)ccc42)CN(C)CC3)cc1 [Compound 43] | 100% | 92% | 99% | 98% | 100% | – |
| CN1CCc2c(c3cc(Cl)ccc3n2CCc2ccc(Cl)cc2)C1 [Compound 45, 5-(4-chlorophenethyl)-8-chloro-2,3,4,5-tetrahydro-2-methyl-1H-pyrido[4,3-b]indole] | 98% | 99% | 100% | 92% | 100% | – |
| Cc1ccc(CCn2c3c(c4cc(C(F)(F)F)ccc42)CN(C)CC3)cc1 [Compound 47] | 78% | 92% | 92% | 81% | 98% | – |
| Cc1ccc2c(c1)c1c(n2CCc2ccc(C)nc2)CCN(C2CC2)C1 [Compound 51] | 17% | 17% | 0% | 22% | 26% | – |
| Cc1ccc(CCn2c3c(c4cc(C(F)(F)F)ccc42)CN(C)CC3)cn1 [Compound 53] | 4% | 49% | −1% | 13% | 18% | – |
| CN1CCc2c(c3cc(C(F)(F)F)ccc3n2CCc2ccccc2)C1 [Compound 80, 8-(trifluoromethyl)-2,3,4,5-tetrahydro-2-methyl-5-phenethyl-1H-pyrido[4,3-b]indole] | 71% | 92% | 88% | 75% | 98% | – |
| CN1CCc2c(c3c(Cl)cccc3n2CCc2ccccc2)C1 [Compound 81] | 57% | 89% | 99% | 47% | 96% | – |
| CN1CCc2c(c3ccc(Cl)cc3n2CCc2ccccc2)C1 [Compound 82] | 99% | 100% | 99% | 64% | 99% | – |
| CN1CCc2c(c3cccc(Cl)c3n2CCc2ccccc2)C1 [Compound 83] | 97% | 95% | 100% | 92% | 100% | – |
| CN1CCc2c(c3cc(Cl)ccc3n2CCc2ccc(F)cc2)C1 [Compound 162, 5-(4-fluorophenethyl)-8-chloro-2,3,4,5-tetrahydro-2-methyl-1H-pyrido[4,3-b]indole] | 94% | 94% | 98% | 90% | 99% | – |
| Cc1ccc2c(c1)c1c(n2CCc2cncc(Cl)c2)CCN(C)C1 [Compound 443, 5-(2-(5-chloropyridin-3-yl)ethyl)-2,3,4,5-tetrahydro-2,8-dimethyl-1H-pyrido[4,3-b]indole] | 94% | – | 94% | 91% | 87% | 29% |
| CN1CCc2c(c3cc(Cl)ccc3n2CCc2cncc(Cl)c2)C1 [Compound 444, 8-chloro-5-(2-(5-chloropyridin-3-yl)ethyl)-2,3,4,5-tetrahydro-2-methyl-1H-pyrido[4,3-b]indole] | 80% | – | 95% | 91% | 89% | 32% |
| Cc1ccc2c(c1)c1c(n2CC(C)c2ccc(F)cc2)CCN(C)C1 (stereo not drawn) [Compound 456, 5-(2-(4-fluorophenyl)propyl)-2,3,4,5-tetrahydro-2,8-dimethyl-1H-pyrido[4,3-b]indole] | 98% | – | 104% | 96% | 106% | 76% |
| Cc1ccc2c(c1)c1c(n2CC(=O)N2CCN(C)CC2)CCN(C)C1 [Compound 459, 2-(1,2,3,4-tetrahydro-2,8-dimethylpyrido[4,3-b]indol-5-yl)-1-(4-methylpiperazin-1-yl)ethanone] | -4% | – | 1% | 0% | −9% | −7% |
| CCCc1ccc(CCn2c3c(c4cc(Cl)ccc42)CN(C)CC3)cn1 [Compound 476, 8-chloro-2,3,4,5-tetrahydro-2-methyl-5-(2-(6-propylpyridin-3-yl)ethyl)-1H-pyrido[4,3-b]indole] | 96% | – | 100% | 95% | 87% | 30% |
